Results as given in patent US20240246964A1 (Arbutus Biopharma Corporation, priority 2021, published 2024).

Experiments:
[1] = target: PD-L1 His protein / PD-1 Fc protein (Homo sapiens (Human), UniProt Q9NZQ7); assay: HTRF Assay (PD-1/PD-L1 interaction); format: binding; settings: PD-L1 His 6 nM, PD-1 Fc 6 nM
human PD-L1 = human PD-L1 (Homo sapiens (Human), UniProt Q9NZQ7); assay: T cell activation luciferase reporter cell culture system (T Cell Activation Assay); format: cell-based; settings: luciferase reporter assay; PD-L1 aAPC/CHO-K1 cells with PD-1 effector Jurkat T cells
human PD-L1, sequence (Q9NZQ7 19-290): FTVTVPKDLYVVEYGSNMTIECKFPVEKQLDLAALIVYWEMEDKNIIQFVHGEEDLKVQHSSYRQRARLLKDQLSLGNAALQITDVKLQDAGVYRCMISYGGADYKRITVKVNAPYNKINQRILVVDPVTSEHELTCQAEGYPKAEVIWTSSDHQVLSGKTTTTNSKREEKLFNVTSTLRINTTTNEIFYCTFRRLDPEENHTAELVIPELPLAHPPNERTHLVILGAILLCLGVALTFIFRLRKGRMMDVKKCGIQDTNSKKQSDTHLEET

PD-L1 His protein / PD-1 Fc protein, sequence (Q9NZQ7 19-238): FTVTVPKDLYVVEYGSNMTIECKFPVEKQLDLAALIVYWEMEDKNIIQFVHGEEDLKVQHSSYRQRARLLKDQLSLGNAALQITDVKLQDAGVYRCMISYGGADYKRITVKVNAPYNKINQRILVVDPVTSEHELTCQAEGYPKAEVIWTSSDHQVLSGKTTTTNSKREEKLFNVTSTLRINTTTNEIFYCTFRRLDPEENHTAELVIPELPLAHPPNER

SMILES | IC50 [1] | EC50 (human PD-L1)
COc1cc(-c2nccc(-c3cccc(-c4ccc(CNC5CCOCC5)c(OC)n4)c3C)c2Cl)ccc1CNC1CCOCC1 [Example 426, N-((6-(3-(3-chloro-2-(3-methoxy-4-(((tetrahydro-2H-pyran-4-yl)amino)methyl)phenyl)pyridin-4-yl)-2-methylphenyl)-2-methoxypyridin-3-yl)methyl)tetrahydro-2H-pyran-4-amine] | 4.23 nM | 98.8 nM
COc1cc(-c2nccc(-c3cccc(-c4ccc(CNC5CCN(C(C)=O)CC5)c(OC)n4)c3Cl)c2Cl)ccc1CN(C)C1CCOCC1 [Example 427, 1-(4-(((6-(2-chloro-3-(3-chloro-2-(3-methoxy-4-((methyl(tetrahydro-2H-pyran-4-yl)amino)methyl)phenyl)pyridin-4-yl)phenyl)-2-methoxypyridin-3-yl)methyl)amino)piperidin-1-yl)ethan-1-one] | 8.8 nM | 25 nM
COc1cc(-c2nccc(-c3cccc(-c4ccc(CN5CC6(CNC(=O)C6)C5)c(OC)n4)c3F)c2Cl)ccc1CN1CC2(CNC(=O)C2)C1 [Example 438, 2-(4-(3-chloro-4-(2-fluoro-3-(6-methoxy-5-((7-oxo-2,6-diazaspiro[3.4]octan-2-yl)methyl)pyridin-2-yl)phenyl)pyridin-2-yl)-2-methoxybenzyl)-2,6-diazaspiro[3.4]octan-7-one] | 3.1 nM | 58.7 nM
COc1cc(-c2nccc(-c3cccc(-c4ccc(CNC5CCN(C(C)=O)CC5)c(OC)n4)c3F)c2Cl)ccc1CNC1CCN(C(C)=O)CC1 [Example 439, 1-(4-(((6-(3-(2-(4-(((1-Acetylpiperidin-4-yl)amino)methyl)-3-methoxyphenyl)-3-chloropyridin-4-yl)-2-fluorophenyl)-2-methoxypyridin-3-yl)methyl)amino)piperidin-1-yl)ethan-1-one] | 2.74 nM | 121 nM
COc1cc(-c2nccc(-c3cccc(-c4ccc(CNC5CCOCC5)c(OC)n4)c3F)c2Cl)ccc1CNC1CCOCC1 [Example 440, N-((6-(3-(3-Chloro-2-(3-methoxy-4-(((tetrahydro-2H-pyran-4-yl)amino)-methyl)phenyl)pyridin-4-yl)-2-fluorophenyl)-2-methoxypyridin-3-yl)methyl)tetrahydro-2H-pyran-4-amine] | 9.97 nM | 214 nM
COc1cc(-c2nccc(-c3cccc(-c4ccc(CNC5CCOCC5)c(OC)n4)c3Cl)c2Cl)ccc1CN(C)C1CCOCC1 [Example 441, N-(4-(3-chloro-4-(2-chloro-3-(6-methoxy-5-(((tetrahydro-2H-pyran-4-yl)amino)methyl)pyridin-2-yl)phenyl)pyridin-2-yl)-2-methoxybenzyl)-N-methyltetrahydro-2H-pyran-4-amine] | 5.61 nM | 149 nM
COc1cc(-c2nccc(-c3cccc(-c4ccc(CNC5CCOCC5)c(OC)n4)c3Cl)c2Cl)ccc1CN(C)C1CCN(C(C)=O)CC1 [Example 442, 1-(4-((4-(3-chloro-4-(2-chloro-3-(6-methoxy-5-(((tetrahydro-2H-pyran-4-yl)amino)methyl)pyridin-2-yl)phenyl)pyridin-2-yl)-2-methoxybenzyl)(methyl)amino)piperidin-1-yl)ethan-1-one] | 5.94 nM | 43.3 nM
COCCNCc1ccc(-c2nccc(-c3cccc(-c4ccc(CNCCOC)c(OC)n4)c3Cl)c2Cl)cc1OC [Example 446, N-((6-(2-chloro-3-(3-chloro-2-(3-methoxy-4-(((2-methoxyethyl)amino)methyl)phenyl)pyridin-4-yl)phenyl)-2-methoxypyridin-3-yl)methyl)-2-methoxyethan-1-amine] | 3.75 nM | 31 nM
COc1cc(-c2nccc(-c3cccc(-c4ccc(CNC5CCN(C(C)=O)CC5)c(OC)n4)c3F)c2F)ccc1CNC1CCN(C(C)=O)CC1 [Example 449, 1-(4-(((6-(3-(2-(4-(((1-acetylpiperidin-4-yl)amino)methyl)-3-methoxyphenyl)-3-fluoropyridin-4-yl)-2-fluorophenyl)-2-methoxypyridin-3-yl)methyl)amino)piperidin-1-yl)ethan-1-one] | 12.9 nM | ≥ 10000 nM
COc1cc(-c2nccc(-c3cccc(-c4ccc(CN[C@H]5CC[C@H](OC)CC5)c(OC)n4)c3Cl)c2Cl)ccc1CN[C@H]1CC[C@H](OC)CC1 [Example 450, (1r,4r)-N-((6-(2-Chloro-3-(3-chloro-2-(3-methoxy-4-((((1r,4r)-4-methoxycyclohexyl)amino)methyl)phenyl)pyridin-4-yl)phenyl)-2-methoxypyridin-3-yl)methyl)-4-methoxycyclohexan-1-amine] | 2.36 nM | 54.7 nM
COc1cc(-c2nccc(-c3cccc(-c4ccc(CNC5CCOCC5)c(OC)n4)c3F)c2F)ccc1CNC1CCOCC1 [Example 452, N-((6-(2-Fluoro-3-(3-fluoro-2-(3-methoxy-4-(((tetrahydro-2H-pyran-4-yl)amino)methyl)phenyl)pyridin-4-yl)phenyl)-2-methoxypyridin-3-yl)methyl)tetrahydro-2H-pyran-4-amine] | 22.6 nM | ≥ 10000 nM
COc1cc(-c2nccc(-c3cccc(-c4ccc(CNC5CCN(C(C)=O)CC5)c(OC)n4)c3Cl)c2Cl)ccc1CN1CCOCC1 [Example 458, 1-(4-(((6-(2-Chloro-3-(3-chloro-2-(3-methoxy-4-(morpholinomethyl)phenyl)pyridin-4-yl)phenyl)-2-methoxypyridin-3-yl)methyl)amino)piperidin-1-yl)ethan-1-one] | 24.6 nM | 82.6 nM
COc1cc(-c2nccc(-c3cccc(-c4ccc(CNC5CCOCC5)c(OC)n4)c3Cl)c2C)ccc1CNC1CCOCC1 [Example 462, N-((6-(2-chloro-3-(2-(3-methoxy-4-(((tetrahydro-2H-pyran-4-yl)amino)methyl)phenyl)-3-methylpyridin-4-yl)phenyl)-2-methoxypyridin-3-yl)methyl)tetrahydro-2H-pyran-4-amine] | 6.78 nM | 178 nM
COc1cc(-c2nccc(-c3cccc(-c4ccc(CN5CC6(CCOCC6)C5)c(OC)n4)c3Cl)c2Cl)ccc1CN1CC2(CCOCC2)C1 [Example 470, 2-((6-(3-(2-(4-((7-Oxa-2-azaspiro[3.5]nonan-2-yl)methyl)-3-methoxyphenyl)-3-chloropyridin-4-yl)-2-chlorophenyl)-2-methoxypyridin-3-yl)methyl)-7-oxa-2-azaspiro[3.5]nonane] | 19.3 nM | 190 nM
COc1cc(-c2nccc(-c3cccc(-c4ccc(CN5CC(C(C)(C)O)C5)c(OC)n4)c3Cl)c2Cl)ccc1CN1CC(C(C)(C)O)C1 [Example 471, 2-(1-((6-(2-Chloro-3-(3-chloro-2-(4-((3-(2-hydroxypropan-2-yl)azetidin-1-yl)methyl)-3-methoxyphenyl)pyridin-4-yl)phenyl)-2-methoxypyridin-3-yl)methyl)azetidin-3-yl)propan-2-ol] | 4.63 nM | 111 nM
COc1cc(-c2nccc(-c3cccc(-c4ccc(CN(C)C[C@H]5CNC(=O)C5)c(OC)n4)c3Cl)c2Cl)ccc1CN(C)C[C@H]1CNC(=O)C1 [Example 473, (R)-4-((((6-(2-Chloro-3-(3-chloro-2-(3-methoxy-4-((methyl(((R)-5-oxopyrrolidin-3-yl)methyl)amino)methyl)phenyl)pyridin-4-yl)phenyl)-2-methoxypyridin-3-yl)methyl)(methyl)amino)methyl)pyrrolidin-2-one] | 16.9 nM | ≥ 10000 nM
COc1nc(-c2cccc(-c3ccnc(-c4cc(OC)c5nc(CN6CC(C)(C#N)C6)cn5c4)c3Cl)c2Cl)ccc1CNC1CCN(C(C)=O)CC1 [Example 477, 1-((6-(4-(3-(5-(((1-Acetylpiperidin-4-yl)amino)methyl)-6-methoxypyridin-2-yl)-2-chlorophenyl)-3-chloropyridin-2-yl)-8-methoxyimidazo[1,2-a]pyridin-2-yl)methyl)-3-methylazetidine-3-carbonitrile] | 21.4 nM | 7480 nM
COc1nc(-c2cccc(-c3ccnc(-c4cc(OC)c5nc(CNCC(F)F)cn5c4)c3Cl)c2Cl)ccc1CNC1CCN(C(C)=O)CC1 [Example 478, 1-(4-(((6-(2-Chloro-3-(3-chloro-2-(2-(((2,2-difluoroethyl)amino)methyl)-8-methoxyimidazo[1,2-a]pyridin-6-yl)pyridin-4-yl)phenyl)-2-methoxypyridin-3-yl)methyl)amino)piperidin-1-yl)ethan-1-one] | 43.9 nM | ≥ 10000 nM
COc1cc(-c2nccc(-c3cccc(-c4ccc(CNC5CCN(C(C)=O)CC5)c(OC)n4)c3Cl)c2Cl)cc2c1CN(C1CCN(CC(=O)O)C1=O)CC2 (stereo not drawn) [Example 480, 2-(3-(6-(4-(3-(5-(((1-Acetylpiperidin-4-yl)amino)methyl)-6-methoxypyridin-2-yl)-2-chlorophenyl)-3-chloropyridin-2-yl)-8-methoxy-3,4-dihydroisoquinolin-2(1H)-yl)-2-oxopyrrolidin-1-yl)acetic acid] | 3.9 nM | 1490 nM
COc1cc(-c2nccc(-c3cccc(-c4ccc(CN5CC6(C5)CN(C(C)=O)C6)c(OC)n4)c3Cl)c2Cl)ccc1CNC1CCN(C(C)=O)CC1 [Example 483, 1-(4-((4-(4-(3-(5-((6-acetyl-2,6-diazaspiro[3.3]heptan-2-yl)methyl)-6-methoxypyridin-2-yl)-2-chlorophenyl)-3-chloropyridin-2-yl)-2-methoxybenzyl)amino)piperidin-1-yl)ethan-1-one] | 2.63 nM | 39.7 nM
COc1cc(-c2nccc(-c3cccc(-c4ccc(CN5CC6(CNC(=O)C6)C5)c(OC)n4)c3Cl)c2Cl)ccc1CN1CC2(C1)CN(C(C)=O)C2 [Example 493, 2-((6-(3-(2-(4-((6-Acetyl-2,6-diazaspiro[3.3]heptan-2-yl)methyl)-3-methoxyphenyl)-3-chloropyridin-4-yl)-2-chlorophenyl)-2-methoxypyridin-3-yl)methyl)-2,6-diazaspiro[3.4]octan-7-one] | 0.76 nM | 19.2 nM
